Read-outs that look alike come from different tables or passages of the source.
Legend:
NFκB = assay: TNFα-induced NFκB reporter cell line; format: cell-based; settings: fibroblasts, TNFα 6 hours
Protocol: FIG. 5. Inhibition of TNFα-induced activation of NFκB by Compound 62. Fibroblasts transfected with a TNFα-responsive promoter linked to luciferase were treated with the indicated concentrations of Compound 62 and then treated with TNFα for 6 hours. The amount of luciferase expressed by the cells was then measured by luminescence. Values represent the mean±sd luciferase activity in triplicate samples in a typical experiment.
The excellent aqueous solubility of Compound 62 allowed it to be evaluated in an NFκB reporter cell line (FIG. 5). Fibroblasts transfected with an NFκB response element linked to luciferase produce high levels of luciferase upon exposure to TNFα.

[1] = test system: C57BL/6 mice, DSS model of IBD; assay: Acute DSS-colitis model; format: in vivo, mouse; settings: 2% DSS, 50 mg/kg oral daily
Protocol: We have conducted experiments with SK inhibitors using the dextran sulfate sodium (DSS) model of IBD. In these experiments, male C57BL/6 mice were provided with standard rodent diet and water ad libitum. After their acclimation, the animals were randomly divided into groups of 5 or 6 for DSS (40,000 MW from ICN Biomedicals, Inc., Aurora, Ohio)—and drug-treatment. The SK inhibitors were dissolved in PEG400, and given once daily by oral gavage in a volume of 0.1 mL per dose. Dipentum, an FDA-approved anti-colitis drug whose active ingredient, olsalazine, is converted to 5-aminosalicylic acid in vivo, was used as a positive control. The mice were given normal drinking water or 2% DSS and treated orally with an SK inhibitor or Dipentum at a dose of 50 mk/kg daily. The body weight of each animal was measured each day, and the Disease Activity Index (DAI) was scored for each animal on Days 4-6. On Day 6, the animals were sacrificed by cervical dislocation and the entire colon was removed and measured to the nearest 0.1 cm. Portions of the colons were then fixed, sectioned and their histologies were assessed on a blinded basis to determine their Histology Score. Other portions of the colons were used for biochemical analyses of inflammation markers.

MDA-MB-231 (breast, ER−) = assay: Human tumor cell line panel, sulforhodamine B; format: cell-based; settings: 48 hours, mean ± sd
[2] = test system: female DBA/1 mice, collagen-induced arthritis; assay: Collagen-Induced Arthritis (CIA) model; format: in vivo, mouse; settings: Day 12
Protocol: The anti-arthritis activities of the SK inhibitor Compound 62 were assessed in the Collagen-Induced Arthritis (CIA) model. Female DBA/1 mice were injected subcutaneously in the tail with chicken immunization-grade type II collagen (Chondrex) emulsified in complete Freund's adjuvant (Sigma) at 2 mg/mL. Three weeks later, the mice received a collagen booster in incomplete Freund's adjuvant and were monitored daily thereafter for arthritic symptoms. […] The severity of disease in each animal was quantified by measurement of the hind paw volume with digital calipers. […] Differences among treatment groups were tested using ANOVA.

A-498 (kidney) = assay: Human tumor cell line panel, sulforhodamine B; format: cell-based; settings: A498, 48 hours, mean ± sd
[3] = Oral pharmacokinetics in mice (PEG400); format: in vivo; settings: mouse, blood, 100 mg/kg oral gavage in PEG400, female Swiss-Webster mice
Protocol: Oral pharmacokinetic studies were performed on Compounds 62 and 57. Each compound was dissolved in PEG400 and administered to female Swiss-Webster mice at a dose of 100 mg/kg by oral gavage. Mice were anesthetized and blood was removed via cardiac puncture at 5 minutes, 30 minutes, 1, 2, and 8 hours. Concentrations of the test compounds were determined using liquid-liquid extraction, appropriate internal standards and reverse phase HPLC with UV detection. Control blood samples were run to identify compound-specific peaks. Pharmacokinetic parameters were calculated using the WINNONLIN analysis software package (Pharsight). Non-compartmental and compartmental models were tested, with the results shown in Table 7 derived from the best fit equations.

SK-OV-3 (ovary) = assay: Human tumor cell line panel, sulforhodamine B; format: cell-based; settings: 48 hours, mean ± sd
[4] = test system: retinal vascular permeability in diabetic rats; assay: Diabetic retinopathy, streptozotocin rats; format: in vivo, rat; settings: 25 or 75 mg/kg ip 5 days per week, Day 45 to Day 87
Protocol: Male Sprague-Dawley rats weighing 150-175 g were used. Diabetes was produced by intraperitoneal injection of streptozotocin (65 mg/kg in citrate buffer) after overnight fasting. Sham-injected non-diabetic animals were also carried as controls. Blood glucose was measured three days post-injection and animals with blood glucose over 250 mg/dL were used as diabetic rats for the study. Blood glucose levels and body weights were monitored weekly throughout the study. On Day 45, retinal vascular permeability was measured in a group of control and diabetic rats (Antonetti et al., 1998, Diabetes 47: 1953, Barber et al., 2005, Invest Ophthalmol Vis Sci 46: 2210). […] Sections were dewaxed and viewed with an Olympus OM-2 fluorescence microscope fitted with a Sony CLD video camera. Fluorescence intensities of digital images were measured using Leica Confocal Software (Version 2.61, build 1538, LCS Lite, 2004). The average retinal intensity for each eye was then normalized to non-injected controls analyzed in the same manner and to the plasma fluorescence of the animal. Through serial sectioning of the eye, this technique enables quantification of varied vascular permeability in the retina (Antonetti et al., 1998, Diabetes 47: 1953, Barber et al., 2005, Ibid.). […]

[5] = 100 mg/kg orally each day 6 days per week

O=C(NCc1ccncc1)C12CC3CC(C1)CC(c1ccc(Cl)cc1)(C3)C2 [Compound 62, 3-(4-Chloro-phenyl)-adamantane-1-carboxylic acid (pyridin-4-ylmethyl)-amide]
activation of NFκB by TNFα (luciferase) (NFκB): dose-dependently suppressed
increase in colon myeloperoxidase (MPO) activity [1]: markedly attenuated
colon length ([1]; Day 6): intermediate length
histological examination of colon sections ([1]; Day 6): no or mild crypt damage, no or low levels of inflammatory cell infiltration and no edema in the submucosa
Disease Activity Index (intensity of IBD manifestations) ([1]; Days 4-6): reduced
colonic S1P levels vs DSS-alone ([1]; LC-MS/MS): markedly lower
IC50 (MDA-MB-231 (breast, ER−)): 29.1 ± 11.1 µM
reduction in clinical score vs vehicle [2, 5]: 67%
reduction in the increase in hind paw thickness vs vehicle [2, 5]: 90%
histologic damage of tibiotarsal joints ([2]; 100 mg/kg orally): significantly reduced
IC50 (A-498 (kidney)): 12.2 ± 6 µM
Cmax [3]: 55.8 µM
Tmax [3]: 0.5 h
half-life [3]: 7.3 h
AUC(0-inf) ([3]; read-out: AUC0→∞ (μM * h)): 452 µM·h
AUC(0-inf) ([3]; read-out: AUC0→∞ (μg * h/mL)): 172 µg·h/mL
IC50 (SK-OV-3 (ovary)): 10.5 ± 2.6 µM
FITC-BSA leakage into the retina vs untreated diabetic rats [4]: substantially reduced

Reference: patent US8557800B2, “Sphingosine kinase inhibitors” (Apogee Biotechnology Corporation, priority 2005, dated 2013)
